# Results from patent publication US8466113B2, “4-isopropylphenyl glucitol compounds as SGLT1 inhibitors” (Taisho Pharmaceutical Co., Ltd., priority 2009, dated 2013).
# Key:
# [1] = tested on: streptozotocin (STZ)-induced diabetic rats; test: Oral glucose tolerance test (OGTT) in streptozotocin-induced diabetic model rats; format: in vivo, rat; settings: oral 1 mg/kg, glucose 2 g/kg, versus vehicle control
# Experimental: (1) Preparation of Diabetic Model Rats
# SD/IGS rats at 7 weeks of age (male, Charles River Laboratories Japan Inc.) were fasted for about 16 hours and then injected with 50 mg/kg streptozotocin (STZ) via the tail vein under ether anesthesia to prepare diabetic model rats. Similarly, another group of SD/IGS rats at 7 weeks of age was injected with 1.25 mmol/L citric acid in physiological saline (1 mL/kg) via the tail vein under ether anesthesia to prepare normal control rats. At one week after injection of STZ or 1.25 mmol/L citric acid in physiological saline, the rats were provided for an oral glucose tolerance test.
# (2) Oral Glucose Tolerance Test (OGTT)
# After the diabetic model rats were fasted for about 16 hours, drug groups were each orally administered with a drug (1 mg/kg) dissolved in a 0.5% aqueous carboxymethylcellulose sodium (CMC) solution, while the control group was orally administered with a 0.5% aqueous CMC solution alone. The drugs used were compounds 10, 11 and 33 disclosed in WO07/136116, as well as compounds 1-2, 5-2, 6-2, 13-2 and 15-2 according to the present invention. Immediately after drug administration, a glucose solution (2 g/kg) was orally administered and blood was collected at 6 points in total: before drug administration (0 hour) and 0.25, 0.5, 1, 1.5 and 2 hours after oral administration.
# Blood was collected from the tail vein of each rat without anesthesia using a heparin-coated blood collection tube, and centrifuged to separate plasma. Plasma glucose concentrations were quantified by measurement with a Glucose CII-Test Wako (Wako Pure Chemical Industries, Ltd., Japan). To determine the intensity of hypoglycemic effect, the blood glucose level before drug administration was subtracted from each blood glucose level measured until one hour after oral administration in each drug group, and the resulting values were analyzed by the trapezoidal method to calculate an increment in the area under the curve for glucose (ΔAUC), which was expressed as a decrease relative to ΔAUC of the control group.
# [2] = Kidney concentrations after repeated oral administration for 3 days; format: in vivo, rat; settings: 3 mg/kg once a day for 3 days, male Sprague-Dawley rats, 48 hours after final administration
# Experimental: (2) Kidney Concentrations of Inventive Compounds After Repeated Oral Administration for 3 Days
# SD/IGS rats at 7 weeks of age (male, non-fasting, Charles River Laboratories Japan Inc.) were orally administered once a day for 3 consecutive days with compound 1-2, 5-2, 6-2, 13-2 or 15-2 according to the present invention (3 mg/kg) prepared in a 0.5% aqueous CMC solution. At 48 hours after the final drug administration, the rats were exsanguinated via the postcaval vein under isoflurane anesthesia, and their kidneys were excised after they were confirmed to be euthanized. After the tissue surface was washed with physiological saline, each tissue was measured for its weight and homogenized in 4 volumes of purified water under ice cooling. The drug concentration in each homogenate was determined in the same manner as shown in Test Example 3(1) by LC-MS/MS using compound 11 as an internal standard substance.
SMILES,STZ rats OGTT % inhibition ΔAUC0-1 h (mg/dl) @1 mg/kg/po [1] [%],"Concentration of compounds in kidney after 3 days continuous oral administration, After 2 days [2]"
Cc1cc(/C=C/C(C)(C)C(=O)NC(C)(C)C(=O)NCC(C)(C)N)ccc1Cc1cc([C@@H]2O[C@H](CO)[C@@H](O)[C@H](O)[C@H]2O)c(O)cc1C(C)C [Example 6-2],64,BLQ (BLQ means below lower limit of quantification(5 ng/g))
Cc1cc(/C=C/C(C)(C)C(=O)NC(C)(C)C(=O)NCCN(C)C)ccc1Cc1cc([C@@H]2O[C@H](CO)[C@@H](O)[C@H](O)[C@H]2O)c(O)cc1C(C)C [Example 1-2],74,BLQ^# (BLQ means below lower limit of quantification(5 ng/g))
Cc1cc(/C=C/C(C)(C)C(=O)NC(C)(C)C(=O)N2CCC(N(C)C)CC2)ccc1Cc1cc([C@@H]2O[C@H](CO)[C@@H](O)[C@H](O)[C@H]2O)c(O)cc1C(C)C [Example 5-2],66,BLQ (BLQ means below lower limit of quantification(5 ng/g))
COc1cc(C(C)C)c(Cc2ccc(/C=C/C(C)(C)C(=O)NC(C)(C)C(=O)NCCN(C)C)cc2)cc1[C@@H]1O[C@H](CO)[C@@H](O)[C@H](O)[C@H]1O [Example 15-2],62,BLQ (BLQ means below lower limit of quantification(5 ng/g))
COc1cc(C(C)C)c(Cc2ccc(/C=C/C(C)(C)C(=O)NC(C)(C)C(=O)NCC(C)(C)N)cc2C)cc1[C@@H]1O[C@H](CO)[C@@H](O)[C@H](O)[C@H]1O [Example 13-2],54,BLQ (BLQ means below lower limit of quantification(5 ng/g))
